# Values joined by “and” are separate entries in the source; they are usually repeats but may differ in a detail not shown here. Equal values may be shown once. Read-outs that look alike come from different tables or passages of the source. Where no end group is shown, it is not given here.
# How the values were obtained:
# [1] = molecular target: BCL-2 F104C (Homo sapiens, UniProt P10415, F104C); assay: SPR direct binding to immobilised BH3 peptides (kinetic fit), BCL-2 F104C; conditions: for Kd: BCL-2 F104C
# Method: (§1) SPR experiments were performed as previously described. […] The lowest concentrations used in direct binding experiments were 1 nM for BIAcore 4000 and 0.1 nM for BIAcore S200 instruments, concentrations below these were below the sensitivity thresholds for the instruments. […] Direct binding experiments were fitted to a 1:1 binding site kinetic model, fitting on and off rates, in BIAevaluation software. For competition experiments steady-state responses were determined in BIAevaluation software according to the software defaults in affinity evaluation mode averaging responses for 5 sec. […] All affinity measurements were performed in at least two independent experiments using independent protein preparations.
# (§2) Raw data (coloured curves) were fitted (black curves) to a 1 site specific kinetic model to determine on and off rates and the equilibrium binding constant KD.
# (§3) The BCL-2 mutant proteins were diluted in a 2-fold dilution series, concentration ranges for curves are indicated. All experiments shown were performed on a BIAcore 4000, with the exception of (a) which was performed on a BIAcore S200.
# (§4) (1 picture or pasted object on this page, not shown here)
# [2] = molecular target: BCL-2 E152A (Homo sapiens, UniProt P10415, E152A); assay: SPR direct binding to immobilised BH3 peptides (kinetic fit), BCL-2 E152A
# Method: as §1, §2, §3, §4
# [3] = molecular target: BCL-2 G101V/E152A double mutant (Homo sapiens, UniProt P10415, E152A/G101V); assay: SPR direct binding to immobilised BH3 peptides (kinetic fit), BCL-2 G101V/E152A double mutant
# Method: as §1, §2, §3, §4
# [4] = molecular target: BCL-2 WT; conditions: cited from earlier work
# [5] = molecular target: BCL-2 G101V; conditions: cited from earlier work
# [6] = molecular target: BCL-2 F104L; conditions: cited from earlier work
# [7] = molecular target: BCL-2 WT; conditions: competition vs BIMBH3 SPR surface, mean ± SD, n=3, previously reported, listed as Ven; cited from earlier work
# [8] = test system: BCL-2 G101V; conditions: G101V relative to WT; cited from earlier work
# [9] = molecular target: BCL-2 F104L; conditions: listed as Ven, cited from earlier work
# [10] = test system: KMS-12-PE cells, Parental; assay: CellTiter-Glo cell viability, KMS-12-PE parental cells; format: cell-based; conditions: 3 independent experiments in duplicate
# [11] = BCL-2 F104C binding BAXBH3, 1:1 kinetic fit, each independent experiment
# [12] = read-out: BAXBH3 KD (mean), direct binding, kinetic fit, mean ± SD, n ≥ 2
# [13] = read-out: BAXBH3 KD (mean), direct binding, kinetic fit, mean ± SD, n ≥ 2, previously reported
# [14] = read-out: BAXBH3 KD, single independent experiments, independent experiments 1-3, previously reported
# Chain of BCL-2 E152A (P10415 with tags, fused parts or gaps E152A): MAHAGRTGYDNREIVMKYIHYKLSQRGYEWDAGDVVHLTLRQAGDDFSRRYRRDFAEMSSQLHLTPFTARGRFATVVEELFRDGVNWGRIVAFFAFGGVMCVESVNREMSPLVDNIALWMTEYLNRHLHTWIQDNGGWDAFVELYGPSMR
# Chain of BCL-2 F104C (P10415 with tags, fused parts or gaps F104C): as the sequence (P10415 with tags, fused parts or gaps E152A) above, with F47C, A95E counted along it
# Chain of BCL-2 G101V/E152A double mutant (P10415 with tags, fused parts or gaps G101V/E152A): as the sequence (P10415 with tags, fused parts or gaps E152A) above, with G44V counted along it
compound,measurement,setting,value
"BAXBH3: biotinylated BAXBH3 peptide ADASTKKLSECLKRIGDELDSNMELQRMIAA immobilised on SPR sensor chip (also: biotinylated, place not given here)",ka,[1]; [11],1.67e+06 M⁻¹ s⁻¹ and 2e+06 M⁻¹ s⁻¹ and 2.06e+06 M⁻¹ s⁻¹
same,kd,[1]; [11],0.00709 s⁻¹ and 0.00791 s⁻¹ and 0.0079 s⁻¹
same,Kd,[1]; [12],4 nM and 4.02 nM
same,Kd,"[1]; read-out: BAXBH3 KD, single independent experiments, independent experiments 1-3",4.25 nM and 3.96 nM and 3.84 nM
same,Kd,[2]; [12],3.6 nM and 3.55 nM
same,Kd,"[2]; read-out: BAXBH3 KD, single independent experiments, independent experiments 1-2",4.18 nM and 2.93 nM
same,Kd,"[3]; read-out: BAXBH3 KD (mean), BCL-2 G101V/E152A, direct binding, kinetic fit, mean ± SD, n ≥ 2",5.5 nM and 5.51 nM
same,Kd,"[3]; read-out: BAXBH3 KD, single independent experiments, BCL-2 G101V, E152A (DM), independent experiments 1-2",5.7 nM and 5.31 nM
same,Kd,[4]; [13],1.4 nM and 1.37 nM
same,Kd,[4]; [14],1.6 nM and 1.14 nM and 1.36 nM
same,Kd,[5]; [13],12 nM and 11.7 nM
same,Kd,[5]; [14],9.91 nM and 12.9 nM and 12.2 nM
same,Kd,[6]; [13],6.1 nM and 6.08 nM
same,Kd,[6]; [14],7.24 nM and 5.46 nM and 5.55 nM
CC1(C)CCC(CN2CCN(c3ccc(C(=O)NS(=O)(=O)c4ccc(NCC5CCOCC5)c([N+](=O)[O-])c4)c(Oc4cnc5[nH]ccc5c4)c3)CC2)=C(c2ccc(Cl)cc2)C1 [venetoclax],Ki,[7],0.018 nM and 0.0181 nM
same,reduction of affinity of the drug for BCL-2 by the G101V mutation,[8],~180 fold
same,Ki,"[9]; competition vs BIMBH3 SPR surface, mean ± SD, n=3, previously reported, read-out: Ven KI (mean)",0.46 nM and 0.456 nM
same,Ki,"[9]; independent experiments 1-3, previously reported, read-out: Ven KI, single independent experiments",0.358 nM and 0.584 nM and 0.425 nM
O=C(c1cc(-c2cc3c(cc2C(=O)N2Cc4ccccc4C[C@H]2CN2CCOCC2)OCO3)n2c1CCCC2)N(c1ccccc1)c1ccc(O)cc1 [Servier BCL2i],Raw data values in Figure 4a (cell viability),"[10]; Servier BCL2i concentration 0.002441 μM, 0.002441 µM",91.4402 and 90.8859 and 86.2314 and 89.8168 and 85.5276 and 83.3911
same,Raw data values in Figure 4a (cell viability),"[10]; Servier BCL2i concentration 0.019531 μM, 0.019531 µM",79.2854 and 83.3303 and 62.6836 and 66.1433 and 63.9237 and 63.1413
same,Raw data values in Figure 4a (cell viability),"[10]; Servier BCL2i concentration 0.15625 μM, 0.15625 µM",41.8118 and 47.4883 and 34.039 and 38.7009 and 36.6962 and 37.7057
same,Raw data values in Figure 4a (cell viability),"[10]; Servier BCL2i concentration 10 μM, 10 µM",0.8691 and 0.8133 and 1.2479 and 1.255 and 1.1789 and 1.099
